Source: patent US9266835B2, “Quinoline derivatives useful as CB-1 inverse agonists” (JANSSEN PHARMACEUTICA NV, priority 2014, dated 2016)
Where two headings read alike, the source gives them in different places.

How the values were obtained:
[1] = target: Human CB1R (Cannabinoid receptor 1) (Homo sapiens (Human), UniProt P21554); assay: CB-1 in vitro cAMP assay (HTRF), inverse agonism; assay type: cell-based; conditions: mean where tested more than once
[2] = target: Human CB2R (Cannabinoid receptor 2) (Homo sapiens (Human), UniProt P34972); assay: CB-2 in vitro cAMP assay (HTRF), inverse agonism; assay type: cell-based; conditions: mean where tested more than once
Human CB2R (Cannabinoid receptor 2), sequence (P34972 whole entry): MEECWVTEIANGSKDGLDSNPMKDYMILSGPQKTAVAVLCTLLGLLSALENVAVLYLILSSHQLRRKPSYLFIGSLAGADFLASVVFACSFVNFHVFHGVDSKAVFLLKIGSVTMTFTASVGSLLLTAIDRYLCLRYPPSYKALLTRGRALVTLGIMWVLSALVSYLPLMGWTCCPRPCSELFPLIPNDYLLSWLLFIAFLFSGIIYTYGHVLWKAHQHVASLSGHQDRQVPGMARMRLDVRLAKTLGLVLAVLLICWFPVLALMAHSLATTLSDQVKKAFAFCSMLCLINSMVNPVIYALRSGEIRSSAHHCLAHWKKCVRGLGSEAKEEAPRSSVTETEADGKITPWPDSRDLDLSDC

[3] = Mouse Fast PK/BBB (plasma and brain concentration); assay type: in vivo; conditions: male, C57bl/6j, oral, N=3 (dose given as 30 mg/kg and 20 mg/kg)
From the text: Male Sprague Dawley rats were ordered from Charles River (225-250 gm upon arrival). They were fed standard chow diet (Purina 5001) and housed 2 per cage. Male C57bl/6j mice were ordered from Charles River at 22-25 g and housed 3 per cage. They were fed standard chow (Purina 5001). All animals were housed in a temperature-controlled room with 12-hour light/dark cycle. Animals were given food and water ad libitum, except as noted.
Test compounds were formulated in 10% PEG400 and 10% solutol. Test compounds were administered by oral gavage (5 ml kg^−1).
Male C57bl/6j mice were dosed with test compounds at 30 mg/kg. Plasma was collected via retro-orbital bleeding at 1 hr and 4 hrs after dosing. Whole brain without cerebellum was collected at 4 hrs after dosing. Wet brain weight was recorded before freezing. Brains were homogenized in saline and sent for analysis for determination of concentration of test compound.
Table BIO-3 below present results for representative compounds of the present invention, tested according to the procedure as described above. Each compound was tested in three animals (N=3) and administered PA at 20 mg/kg

[4] = Mouse Fast PK/BBB (plasma and brain concentration); assay type: in vivo; conditions: oral, N=3 (dose given as 30 mg/kg and 20 mg/kg)
[5] = brain, read-out: BRAIN Mean Conc. ± Std. Dev
[6] = plasma, read-out: PLASMA Mean Conc. ± Std. Dev

Human CB1R (Cannabinoid receptor 1), sequence (P21554 whole entry): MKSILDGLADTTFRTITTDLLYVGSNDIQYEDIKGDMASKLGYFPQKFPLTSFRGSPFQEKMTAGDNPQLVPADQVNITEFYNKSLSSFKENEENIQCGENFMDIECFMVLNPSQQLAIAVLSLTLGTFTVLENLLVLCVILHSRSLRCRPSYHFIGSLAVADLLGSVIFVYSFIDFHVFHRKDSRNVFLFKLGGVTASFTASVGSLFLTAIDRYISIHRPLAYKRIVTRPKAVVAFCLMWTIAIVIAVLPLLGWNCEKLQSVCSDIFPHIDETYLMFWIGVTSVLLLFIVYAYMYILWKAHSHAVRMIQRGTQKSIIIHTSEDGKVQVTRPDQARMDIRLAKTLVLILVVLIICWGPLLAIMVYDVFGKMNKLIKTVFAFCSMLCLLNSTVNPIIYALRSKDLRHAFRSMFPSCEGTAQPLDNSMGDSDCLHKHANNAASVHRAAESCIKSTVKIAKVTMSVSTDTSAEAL

Compound	EC50 [1] [nM]	EC50 [2] [nM]	concentration at 4 h [3, 5] [ng/mL]	concentration at 1 h [3, 6] [ng/mL]	concentration at 4 h [3, 6] [ng/mL]	concentration at 1 h ([4]; male, C57bl/6j, brain, read-out: BRAIN Mean Conc. ± Std. Dev) [ng/mL]	BRAIN Mean Conc. ± Std. Dev ([4]; 1 hr)
O=c1cc(NC2CCN(S(=O)(=O)C(F)(F)F)CC2)c2cc(C(c3ccc(Cl)cc3)c3nccs3)ccc2[nH]1 (centres unmarked) [Compound #41, 6-((4-chlorophenyl)(thiazol-2-yl)methyl)-4-((1-((trifluoromethyl)sulfonyl)piperidin-4-yl)amino)quinolin-2(1H)-one]	15	8150	0	714 ± 188	291 ± 90.5	7.43	
O=c1cc(Nc2ccc(C(F)(F)F)cc2)c2cc(C(c3ccc(Cl)cc3)c3ccc(Cl)cc3)ccc2[nH]1 [Compound #59, 6-(bis(4-chlorophenyl)methyl)-4-((4-(trifluoromethyl)phenyl)amino)quinolin-2(1H)-one]	7	> 10000	59.7 ± 9.55	2320 ± 1020	1610 ± 563		BLOQ ± NA
O=c1cc(NC2CCN(S(=O)(=O)C(F)(F)F)CC2)c2cc(C(Oc3ccc(Cl)cc3)c3ccc(Cl)cc3)ccc2[nH]1 (centres unmarked) [Compound #136, 6-[4-chlorophenoxy(4-chlorophenyl)methyl]-4-[[1-(trifluoromethane)sulfonylpiperidin-4-yl]amino]-1,2-dihydroquinolin-2-one]	122	> 10000					
